target: T1, human OX2 receptor (Homo sapiens, UniProt O43614); assay: Measurement of orexin type 2 receptor agonist activity (Experimental Example 2; Fluo-4 AM calcium fluorescence, FDSS μCELL); assay type: cell-based; conditions: compound at 3 μM; CHO cells expressing human OX2 receptor; DMSO = 0%, 10 nM orexin A (human) = 100%
T1 construct: expressed in transfected cells
T1 sequence (O43614 1-444): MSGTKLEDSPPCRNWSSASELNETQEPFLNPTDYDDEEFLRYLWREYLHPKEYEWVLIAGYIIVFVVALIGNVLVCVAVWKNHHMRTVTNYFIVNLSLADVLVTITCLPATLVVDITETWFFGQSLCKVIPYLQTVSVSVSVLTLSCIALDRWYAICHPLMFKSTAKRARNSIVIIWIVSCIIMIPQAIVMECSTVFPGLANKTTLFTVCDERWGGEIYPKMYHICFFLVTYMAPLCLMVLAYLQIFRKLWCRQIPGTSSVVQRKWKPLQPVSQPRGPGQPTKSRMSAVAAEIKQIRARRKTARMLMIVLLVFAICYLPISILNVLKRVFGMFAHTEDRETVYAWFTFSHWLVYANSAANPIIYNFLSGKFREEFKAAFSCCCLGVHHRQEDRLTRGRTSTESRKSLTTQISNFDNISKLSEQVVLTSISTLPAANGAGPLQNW
In short: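 Agonism was tested in CHO-K1 cells stably expressing human OX2 receptor (residues 1-444), loaded with Fluo-4 AM plus probenecid. Calcium fluorescence was recorded for 1 min 40 s after compound addition. Activity (%) was scaled between DMSO (0%) and 10 nM orexin A (100%) and reported at 3 μM compound.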

Going from `CS(=O)(=O)N[C@H]1CCN2C(=O)NCc3ccc(Cl)c(n3)Oc3cccc(c3)C[C@@H]12` [Example 16, N-[(15aS,16S)-7-chloro-1-oxo-2,3,15a,16,17,18-hexahydro-1H,15H-4,8-(azeno)-10,14-(metheno)pyrrolo[1,2-j][1,8,10]oxadiazacyclo-heptadecin-16-yl]methanesulfonamide] to `CS(=O)(=O)N[C@H]1CCN2C(=O)NCc3ccc(C(F)F)c(n3)Oc3cccc(c3)C[C@@H]12` [Example 8, N-[(15aS,16S)-7-(difluoromethyl)-1-oxo-2,3,15a,16,17,18-hexahydro-1H,15H-4,8-(azeno)-14,10-(metheno)pyrrolo[1,2-j][1,8,10]oxadiazacyclo-heptadecin-16-yl]methanesulfonamide], the “OX2R agonist activity (3 μM, %)” value rises from 99% to 100%.

Compared with `CCS(=O)(=O)N[C@H]1[C@@H](F)CN2C(=O)NCc3ccc(Cl)c(n3)Oc3cccc(c3)C[C@@H]12` [Example 47, N-[(15aS,16R,17S)-7-chloro-17-fluoro-1-oxo-2,3,15a,16,17,18-hexahydro-1H,15H-4,8-(azeno)-14,10-(metheno)pyrrolo[1,2-j][1,8,10]oxadiazacyclo-heptadecin-16-yl]ethanesulfonamide], `CCS(=O)(=O)N[C@H]1CCN2C(=O)NCc3ccc(C)c(n3)Oc3cccc(c3)C[C@@H]12` [Example 3, N-[(15aS,16S)-7-methyl-1-oxo-2,3,15a,16,17,18-hexahydro-1H,15H-4,8-(azeno)-10,14-(metheno)pyrrolo[1,2-j][1,8,10]oxadiazacyclo-heptadecin-16-yl]ethanesulfonamide] is higher in “OX2R agonist activity (3 μM, %)” value: 92% for the first, 101% for the second.

Compared with `CCS(=O)(=O)N[C@H]1[C@@H](F)CN2C(=O)COc3ccc(Cl)c(n3)Cc3cccc(c3F)C[C@@H]12` [Example 72, N-[(15aS,16R,17S)-7-chloro-17,20-difluoro-1-oxo-1,2,15a,16,17,18-hexahydro-9H,15H-4,8-(azeno)-14,10-(metheno)pyrrolo[1,2-d][1,4]oxazacycloheptadecin-16-yl]ethanesulfonamide], `CCS(=O)(=O)N[C@H]1[C@@H](F)CN2C(=O)COc3ncc(C)c(n3)Oc3cccc(c3)C[C@@H]12` [Example 71, N-[(15aS,16R,17S)-17-fluoro-7-methyl-1-oxo-1,2,15a,16,17,18-hexahydro-15H-4,8-(azeno)-10,14-(metheno)pyrrolo[2,1-n][1,7,3,15]dioxadiazacyclo-heptadecin-16-yl]ethanesulfonamide] is lower in “OX2R agonist activity (3 μM, %)” value: 104% for the first, 99% for the second.

Compared with `Cc1ccc2nc1Oc1cccc(c1)C[C@H]1[C@@H](NS(C)(=O)=O)CCN1C(=O)N(C)C2` [Example 40, N-[(15aS,16S)-2,7-dimethyl-1-oxo-2,3,15a,16,17,18-hexahydro-1H,15H-4,8-(azeno)-10,14-(metheno)pyrrolo[1,2-j][1,8,10]oxadiazacyclo-heptadecin-16-yl]methanesulfonamide], `Cc1ccc2nc1Oc1cc(ccc1F)C[C@H]1[C@@H](NS(C)(=O)=O)CCN1C(=O)NC2` (relative stereo) [Example 9, N-[rel-(15aR,16R)-11-fluoro-7-methyl-1-oxo-2,3,15a,16,17,18-hexahydro-1H,15H-4,8-(azeno)-10,14-(metheno)pyrrolo[1,2-j][1,8,10]oxadiazacyclo-heptadecin-16-yl]methanesulfonamide (optical isomer)] is lower in “OX2R agonist activity (3 μM, %)” value: 103% for the first, 93% for the second.

Going from `CN(C)S(=O)(=O)N[C@H]1[C@@H](F)CN2C(=O)NCc3ccc(C(F)F)c(n3)Oc3cccc(c3F)C[C@@H]12` [Example 37, N′-[(15aS,16R,17S)-7-(difluoromethyl)-17,20-difluoro-1-oxo-2,3,15a,16,17,18-hexahydro-1H,15H-8,4-(azeno)-10,14-(metheno)pyrrolo[1,2-j][1,8,10]oxadiazacyclo-heptadecin-16-yl]-N,N-dimethylsulfuric diamide] to `CS(=O)(=O)N[C@H]1[C@@H](F)CN2C(=O)NCc3ccc(C(F)F)c(n3)Oc3cccc(c3F)C[C@@H]12` [Example 18, N-[(15aS,16R,17S)-7-(difluoromethyl)-17,20-difluoro-1-oxo-2,3,15a,16,17,18-hexahydro-1H,15H-8,4-(azeno)-10,14-(metheno)pyrrolo[1,2-j][1,8,10]oxadiazacyclo-heptadecin-16-yl]methanesulfonamide], the “OX2R agonist activity (3 μM, %)” value rises from 101% to 104%.

Compared with `CN(C)S(=O)(=O)N[C@H]1[C@@H](F)CN2C(=O)NCc3ccc(Cl)c(n3)Oc3cccc(c3F)C[C@@H]12` [Example 34, N′-[(15aS,16R,17S)-7-chloro-17,20-difluoro-1-oxo-2,3,15a,16,17,18-hexahydro-1H,15H-4,8-(azeno)-14,10-(metheno)pyrrolo[1,2-j][1,8,10]oxadiazacyclo-heptadecin-16-yl]-N,N-dimethylsulfuric diamide], `CS(=O)(=O)N[C@@H]1[C@@H]2Cc3cccc(c3F)Oc3nc(ccc3C(F)F)CNC(=O)N2CC1(F)F` [Example 41, N-[(15aS,16R)-7-(difluoromethyl)-17,17,20-trifluoro-1-oxo-2,3,15a,16,17,18-hexahydro-1H,15H-8,4-(azeno)-10,14-(metheno)pyrrolo[1,2-j][1,8,10]oxadiazacyclo-heptadecin-16-yl]methanesulfonamide] is higher in “OX2R agonist activity (3 μM, %)” value: 93% for the first, 107% for the second.

`CS(=O)(=O)N[C@@H]1[C@@H]2Cc3cccc(c3F)COc3nc(ccc3Cl)CNC(=O)N2CC1(F)F` [Example 94, N-[(16aS,17R)-7-chloro-18,18,21-trifluoro-1-oxo-2,3,16a,17,18,19-hexahydro-1H,10H,16H-4,8-(azeno)-15,11-(metheno)pyrrolo[1,2-j][1,8,10]oxadiazacycloocta-decin-17-yl]methanesulfonamide] and `CS(=O)(=O)N[C@@H]1[C@@H]2Cc3cccc(c3)Oc3nc(ccc3C(F)F)CNC(=O)N2CC1(F)F` [Example 93, N-[(15aS,16R)-7-(difluoromethyl)-17,17-difluoro-1-oxo-2,3,15a,16,17,18-hexahydro-1H,15H-4,8-(azeno)-14,10-(metheno)pyrrolo[1,2-j][1,8,10]oxadiazacyclohepta-decin-16-yl]methanesulfonamide] are the same in “OX2R agonist activity (3 μM, %)” value: 109% for the first, 109% for the second.

Going from `Cc1cnc2nc1Oc1cccc(c1F)C[C@H]1[C@@H](NS(C)(=O)=O)C(F)(F)CN1C(=O)CN2C` [Example 75, N-[(15aS,16R)-17,17,20-trifluoro-3,7-dimethyl-1-oxo-2,3,15a,16,17,18-hexahydro-1H,15H-4,8-(azeno)-10,14-(metheno)pyrrolo[1,2-j][1,5,7,10]oxatriazacyclo-heptadecin-16-yl]methanesulfonamide] to `Cc1cnc2nc1Oc1cccc(c1F)C[C@H]1[C@@H](NS(C)(=O)=O)C(F)(F)CN1C(=O)[C@@H]1CCCN21` [Example 59, N-[(16aS,17R,21aS)-18,18,22-trifluoro-8-methyl-21-oxo-2,3,16a,17,18,19,21,21a-octahydro-1H,16H-5,9-(azeno)-11,15-(metheno)dipyrrolo[1,2-g:1′,2′-j][1,5,7,10]oxatriazacyclo-heptadecin-17-yl]methanesulfonamide], the “OX2R agonist activity (3 μM, %)” value rises from 95% to 106%.

First: CCS(=O)(=O)N[C@@H]1[C@@H]2Cc3cccc(c3F)Oc3ccc(F)c(n3)CNC(=O)N2CC1(F)F [Example 50, N-[(15aS,16R)-5,17,17,20-tetrafluoro-1-oxo-2,3,15a,16,17,18-hexahydro-1H,15H-4,8-(azeno)-14,10-(metheno)pyrrolo[1,2-j][1,8,10]oxadiazacyclo-heptadecin-16-yl]ethanesulfonamide]
Second: CCS(=O)(=O)N[C@@H]1[C@@H]2Cc3cccc(c3F)Oc3nc(c(F)cc3F)CNC(=O)N2CC1(F)F [Example 21, N-[(15aS,16R)-5,7,17,17,20-pentafluoro-1-oxo-2,3,15a,16,17,18-hexahydro-1H,15H-4,8-(azeno)-14,10-(metheno)pyrrolo[1,2-j][1,8,10]oxadiazacyclo-heptadecin-16-yl]ethanesulfonamide]
The “OX2R agonist activity (3 μM, %)” value of the first is lower: 88% for the first, 100% for the second.

`O=C1NCc2nc(c(Cl)cc2F)Oc2cccc(c2F)C[C@H]2[C@@H](NS(=O)(=O)C3CC3)C(F)(F)CN12` [Example 58, N-[(15aS,16R)-7-chloro-5,17,17,20-tetrafluoro-1-oxo-2,3,15a,16,17,18-hexahydro-1H,15H-4,8-(azeno)-14,10-(metheno)pyrrolo[1,2-j][1,8,10]oxadiazacyclo-heptadecin-16-yl]cyclopropanesulfonamide] and `CNS(=O)(=O)N[C@@H]1[C@@H]2Cc3cccc(c3F)Oc3nc(ccc3Cl)OCC(=O)N2CC1(F)F` [Example 63, N-[(15aS,16R)-7-chloro-17,17,20-trifluoro-1-oxo-1,2,15a,16,17,18-hexahydro-15H-4,8-(azeno)-10,14-(metheno)pyrrolo[1,2-d][1,12,4]dioxazacyclo-heptadecin-16-yl]-N′-methylsulfuric diamide] are the same in “OX2R agonist activity (3 μM, %)” value: 106% for the first, 106% for the second.

With `CCS(=O)(=O)N[C@@H]1[C@@H]2Cc3cccc(c3F)Oc3nc(cnc3C)CCC(=O)N2CC1(F)F` [Example 61, N-[(1R,19aS)-2,2,20-trifluoro-11-methyl-5-oxo-2,3,6,7,19,19a-hexahydro-1H,5H-8,12-(azeno)-18,14-(metheno)pyrrolo[1,2-j][1,4,10]oxadiazacyclo-heptadecin-1-yl]ethanesulfonamide] the “OX2R agonist activity (3 μM, %)” value was 106%.
